Results reported in ChEMBL document CHEMBL1153933, “Selective inhibition of Pfmrk, a Plasmodium falciparum CDK, by antimalarial 1,3-diaryl-2-propenones” (Bioorg Med Chem Lett, 2009).

How the values were obtained:
Plasmodium falciparum [1] = assay: Antimalarial activity after 24 hrs against chloroquine-sensitive Plasmodium falciparum D6 by [3H]hypoxanthine uptake; format: functional, organism-based
Protein kinase Pfmrk = target: T1, Protein kinase Pfmrk (Plasmodium falciparum, UniProt P90584); assay: Inhibition of His6x-tagged Plasmodium falciparum Pfmrk expressed in Escherichia coli by microtiter plate scintillation counting
T1 sequence (P90584 whole entry): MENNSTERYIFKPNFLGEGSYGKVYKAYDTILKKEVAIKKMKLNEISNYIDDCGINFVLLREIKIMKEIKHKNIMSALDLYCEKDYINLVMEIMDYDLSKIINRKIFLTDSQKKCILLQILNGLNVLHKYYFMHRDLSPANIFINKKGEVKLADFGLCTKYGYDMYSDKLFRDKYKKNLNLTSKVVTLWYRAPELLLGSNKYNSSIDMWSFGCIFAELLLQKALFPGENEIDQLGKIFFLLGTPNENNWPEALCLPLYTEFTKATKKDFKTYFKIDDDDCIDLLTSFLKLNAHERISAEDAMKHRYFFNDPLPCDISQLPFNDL

[2] = Inhibition of His6x-tagged Plasmodium falciparum PfPK5 expressed in Escherichia coli by microtiter plate scintillation counting
Plasmodium falciparum [3] = assay: Antimalarial activity after 24 hrs against chloroquine-resistant Plasmodium falciparum W2 by [3H]hypoxanthine uptake; format: functional, organism-based

| SMILES | IC50 (Plasmodium falciparum [1]) | IC50 (Protein kinase Pfmrk) | IC50 [2] | IC50 (Plasmodium falciparum [3]) |
| --- | --- | --- | --- | --- |
| O=C(/C=C/c1ccccn1)c1cccc([N+](=O)[O-])c1 | 11 µM | 18 µM | > 315 µM | > 19.7 µM |
| C/C(=C\C(=O)c1cccc([N+](=O)[O-])c1)c1cccc([N+](=O)[O-])c1 | 8.3 µM | > 256 µM | > 256 µM | 8.2 µM |
| COc1ccc(C(=O)/C=C/c2ccccn2)c(OC)c1OC | 2.5 µM | 34 µM | > 100 µM | 2.3 µM |
| Cc1ccc(C(=O)/C=C/c2ccccc2)cc1 | 11.7 µM | 20 µM | > 360 µM | 11.5 µM |
| O=C(/C=C/c1ccccn1)c1ccccc1 [WR-190433] |  | 22 µM | > 382 µM |  |
| COc1ccc(C(=O)/C=C/c2cccc3ccccc23)cc1 |  | > 100 µM | > 100 µM |  |
| COc1ccc(C(=O)/C=C/c2ccncc2)cc1 | 12 µM | 8.2 µM | 100 µM | 12.2 µM |
| O=C(/C=C/c1ccccc1)c1cccc([N+](=O)[O-])c1 | > 19.8 µM |  | > 316 µM | > 19.8 µM |
| COc1ccc(C(=O)/C=C/c2cccc3ccccc23)c(OC)c1OC |  | 50 µM | > 100 µM |  |
| COc1ccc(C(=O)/C=C/c2ccc3ccccc3c2)c(OC)c1 |  | 100 µM |  |  |
| CC(=O)Nc1ccc(C(=O)/C=C/c2ccccc2)cc1 | 10.9 µM |  | > 302 µM | 9.9 µM |
| O=C(/C=C/c1ccc([N+](=O)[O-])cc1)c1cccc([N+](=O)[O-])c1 | > 16.8 µM | 268 µM | > 268 µM | > 16.8 µM |
| CCOC(=O)/C(=C\c1ccccn1)C(=O)c1cccc([N+](=O)[O-])c1 |  | 61 µM | 123 µM |  |
| N#Cc1ccc(C(=O)/C=C/c2ccc(Cl)cc2)cc1 | > 18.2 µM | > 100 µM | > 299 µM | 10.5 µM |
| COc1ccc(C(=O)/C=C/c2ccc3ccccc3c2)c(OC)c1OC |  | 19 µM | > 100 µM |  |
| COc1ccc(C(=O)/C=C/c2ccccn2)cc1 | 7.1 µM | 12 µM | > 100 µM | 10.5 µM |
| COc1ccc(C(=O)/C=C/c2cccnc2)c(OC)c1OC | 3.2 µM | 38 µM | > 100 µM | 3.9 µM |
| COc1ccc(C(=O)/C=C/c2ccncc2)c(OC)c1OC | 2.8 µM | 9 µM | > 100 µM | 3.2 µM |
| COc1ccc(C(=O)/C=C/c2cccc3ccccc23)c(OC)c1 |  | 1.3 µM | > 100 µM |  |
